This test addresses T1, full-length beta-catenin (Axin site) (Homo sapiens, UniProt P35222).
T1 construct: 15 nM full-length beta-catenin, 20 nM FITC labeled peptide in buffer
T1 sequence (P35222 1-781): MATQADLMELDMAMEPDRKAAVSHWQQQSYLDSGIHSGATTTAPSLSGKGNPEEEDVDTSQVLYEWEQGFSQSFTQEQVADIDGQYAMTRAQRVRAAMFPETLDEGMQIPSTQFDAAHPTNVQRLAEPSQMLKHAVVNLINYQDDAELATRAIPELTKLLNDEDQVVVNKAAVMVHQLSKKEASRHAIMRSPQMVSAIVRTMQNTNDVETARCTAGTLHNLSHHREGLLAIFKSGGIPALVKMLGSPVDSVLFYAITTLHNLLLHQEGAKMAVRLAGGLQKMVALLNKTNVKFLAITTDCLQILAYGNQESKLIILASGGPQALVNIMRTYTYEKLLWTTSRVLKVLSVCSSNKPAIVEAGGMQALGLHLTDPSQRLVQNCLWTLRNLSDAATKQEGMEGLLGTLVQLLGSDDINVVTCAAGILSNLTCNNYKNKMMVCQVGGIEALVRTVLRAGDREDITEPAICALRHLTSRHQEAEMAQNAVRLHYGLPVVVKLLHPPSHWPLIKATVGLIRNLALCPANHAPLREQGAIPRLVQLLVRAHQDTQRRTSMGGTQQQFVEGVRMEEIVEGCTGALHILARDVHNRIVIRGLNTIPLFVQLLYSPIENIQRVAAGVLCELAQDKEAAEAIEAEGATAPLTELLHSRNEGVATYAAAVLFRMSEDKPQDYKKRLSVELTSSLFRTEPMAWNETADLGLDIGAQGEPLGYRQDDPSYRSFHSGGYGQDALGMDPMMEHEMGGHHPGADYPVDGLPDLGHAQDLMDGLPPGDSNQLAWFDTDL
Kind of test: Competition fluorescence polarization assay (Axin site probe). In kind it is binding. Conditions: competition fluorescence polarization, Table 2; read-out: in vitro FP EC50. The method, then: FIG. 1. […] Peptide solutions were prepared in buffer (50 mM Tris pH 8.0, 250 mM NaCl, 2% glycerol, 0.5 mM EDTA, 0.02% w/v sodium azide) using a 3-fold serial dilution from 5 μM. Probe solution (15 nM full-length 13-Catenin, 20 nM FITC labeled peptide (FITC-PEG1-PQ-S5-ILD-S5-HVRRVWR (SEQ ID NO: 1) (hydrocarbon staple formed by two S5 via olefin metathesis)) in buffer) was prepared and incubated for 5 minutes, then 40 μL per well plated in a black polystyrene 384-well plate (Corning). Equal volume of the titrated peptide was added to the plate and incubated protected from light for 15 minutes prior to read. Reads were performed on a Spectramax M5 (Molecular Devices) in duplicate.
FIG. 7. […] BCL9 Competition FP assay: Peptide solutions were prepared in buffer (50 mM Tris pH 8.0, 250 mM NaCl, 2% glycerol, 0.5 mM EDTA, 0.02% w/v sodium azide) using a 3-fold serial dilution from 10 μM. Probe solution (250 nM full-length beta-catenin, 20 nM 5FAM labeled peptide in buffer) was prepared and 40 μL per well plated in a black polystyrene 384-well plate (Corning). Equal volume of the titrated peptide was added to the plate and incubated protected from light for 15 minutes prior to read. Reads were performed on a Spectramax M5 (Molecular Devices) in duplicate. Probe: Ac-[…]nLeu-Leu-2NapA-bala-bala-Lys5FAM-NH2 (SEQ ID NO: 2) (from Biochemistry, 2009, 48 (40), pp 9534-9541). Axin Competition FP assay: Peptide solutions were prepared in buffer (50 mM Tris pH 8.0, 250 mM NaCl, 2% glycerol, 0.5 mM EDTA, 0.02% w/v sodium azide) using a 3-fold serial dilution from 5 μM. Probe solution (15 nM full-length beta-catenin, 20 nM FITC labeled peptide in buffer) was prepared and incubated for 5 minutes, then 40 μL per well plated in a black polystyrene 384-well plate (Corning). Equal volume of the titrated peptide was added to the plate and incubated protected from light for 15 minutes prior to read. Reads were performed on a Spectramax M5 (Molecular Devices) in duplicate. Probe: FITC-StAx-33 from Grossmann et al. PNAS 109 17942-17947.
A general note: Polarisation of emitted light reports the rotation of a fluorescent probe.

pEC50: −log10 of the molar value. A value given as a limit tells only on which side of the number the result lay.

In the case of `CC[C@H](C)[C@@H]1NC(=O)[C@](C)(NC(=O)[C@H](C)NC(=O)[C@@H]2CCCN2C(C)=O)CCCC=CCCCCCC[C@@](C)(C(=O)N[C@@H](CCCNC(=N)N)C(=O)N[C@H](C(=O)N[C@@H](Cc2c[nH]c3ccccc23)C(N)=O)C(C)C)NC(=O)[C@H](C(C)C)NC(=O)[C@H](Cc2c[nH]cn2)NC(=O)[C@H](C)NC(=O)[C@H](CC(=O)O)NC(=O)[C@H](CC(C)C)NC1=O` (single isomer, unassigned) [FP0212s Isomer 2, Ac-P-A-R5-I-L-D-A-H-V-S8-R-V-W-NH2], the pEC50 – broadly, the EC50 on a negative log10 scale, so that one unit is a factor of ten – is 6.30 to 7.00.

Turning to `CC[C@H](C)[C@@H]1NC(=O)[C@H](Cc2c[nH]cn2)NC(=O)[C@H](C)NC(=O)[C@H](CC(=O)O)NC(=O)[C@H](CC(C)C)NC(=O)[C@H]([C@@H](C)CC)NC(=O)[C@](C)(NC(=O)[C@H](C)NC(C)=O)CCCCCCC=CCOC(=O)N2CC[C@@](C(=O)N[C@@H](CCCNC(=N)N)C(=O)N[C@H](C(=O)N[C@@H](Cc3c[nH]c4ccccc34)C(N)=O)C(C)C)(C2)NC1=O` (single isomer, unassigned) [FP0217c Isomer 1, Ac-AR8ILDAHIMBRVW (SEQ ID NO: 280)], the pEC50 is 5.30 to 6.30.

`CC[C@H](C)[C@@H]1NC(=O)[C@H](Cc2c[nH]cn2)NC(=O)[C@H](C)NC(=O)[C@H](CC(=O)O)NC(=O)[C@H](CC(C)C)NC(=O)[C@H]([C@@H](C)CC)NC(=O)[C@](C)(NC(=O)[C@H](C)NC(C)=O)CCCCCCC=CCCC[C@@](C)(C(=O)N[C@@H](CCCNC(=N)N)C(=O)N[C@H](C(=O)N[C@@H](Cc2c[nH]c3ccccc23)C(N)=O)C(C)C)NC1=O` (single isomer, unassigned) [FP0217s Isomer 1, Ac-A-R8-I-L-D-A-H-I-S5-R-V-W-NH2]: the pEC50 is greater than 7.00.

For `CC[C@H](C)[C@@H]1NC(=O)[C@H](Cc2c[nH]cn2)NC(=O)[C@H](C)NC(=O)[C@H](CC(=O)O)NC(=O)[C@H](CC(C)C)NC(=O)[C@H]([C@@H](C)CC)NC(=O)[C@](C)(NC(=O)[C@H](C)NC(C)=O)CCCCCCC=CCCC[C@@](C)(C(=O)N[C@@H](CCCNC(=N)N)C(=O)N[C@H](C(=O)N[C@@H](Cc2c[nH]c3ccccc23)C(N)=O)C(C)C)NC1=O` (single isomer, unassigned) [FP0217s Isomer 2, Ac-A-R8-I-L-D-A-H-I-S5-R-V-W-NH2], the pEC50 was greater than 7.00.

Consider `CC[C@H](C)[C@@H]1NC(=O)[C@H](Cc2c[nH]cn2)NC(=O)[C@H](C)NC(=O)[C@H](CC(=O)O)NC(=O)[C@H](CC(C)C)NC(=O)[C@H]([C@@H](C)CC)NC(=O)[C@](C)(NC(=O)[C@H](C)NC(C)=O)CN(C)C(=O)OCC=CCCCCCC[C@@](C)(C(=O)N[C@@H](CCCNC(=N)N)C(=O)N[C@H](C(=O)N[C@@H](Cc2c[nH]c3ccccc23)C(N)=O)C(C)C)NC1=O` (single isomer, unassigned) [FP0335c Isomer 1, Ac-A-ME-I-L-D-A-H-I-S8-R-V-W-NH2], for which the pEC50 was 6.30 to 7.00.

Consider `CC[C@H](C)[C@@H]1NC(=O)[C@H](Cc2c[nH]cn2)NC(=O)[C@H](C)NC(=O)[C@H](CC(=O)O)NC(=O)[C@H](CC(C)C)NC(=O)[C@H]([C@@H](C)CC)NC(=O)[C@](C)(NC(=O)[C@H](C)NC(C)=O)CN(C)C(=O)OCC=CCCCCCC[C@@](C)(C(=O)N[C@@H](CCCNC(=N)N)C(=O)N[C@H](C(=O)N[C@@H](Cc2c[nH]c3ccccc23)C(N)=O)C(C)C)NC1=O` (single isomer, unassigned) [FP0335c Isomer 2, Ac-A-ME-I-L-D-A-H-I-S8-R-V-W-NH2], for which the pEC50 was greater than 7.00.

Turning to `CC[C@H](C)[C@@H]1NC(=O)[C@H](Cc2c[nH]cn2)NC(=O)[C@H](C)NC(=O)[C@H](CC(=O)O)NC(=O)[C@H](CC(C)C)NC(=O)[C@H]([C@@H](C)CC)NC(=O)[C@](C)(NC(=O)[C@H](C)NC(C)=O)CCCCCCC=CCOC(=O)N2CC[C@@](C(=O)N[C@@H](Cc3cccc4ccccc34)C(=O)N[C@H](C(=O)N[C@@H](Cc3c[nH]c4ccccc34)C(N)=O)C(C)C)(C2)NC1=O` (single isomer, unassigned) [FP0365c Isomer 1, Ac-A-R8-I-L-D-A-H-I-MB-1NapA-V-W-NH2], the pEC50 is 5.30 to 6.30.

Take `CC[C@H](C)[C@@H]1NC(=O)[C@H](Cc2c[nH]cn2)NC(=O)[C@H](C)NC(=O)[C@H](CC(=O)O)NC(=O)[C@H](CC(C)C)NC(=O)[C@H]([C@@H](C)CC)NC(=O)[C@](C)(NC(=O)[C@H](C)NC(C)=O)CCCCCCC=CCOC(=O)N2CC[C@@](C(=O)N[C@@H](Cc3cccc4ccccc34)C(=O)N[C@H](C(=O)N[C@@H](Cc3c[nH]c4ccccc34)C(N)=O)C(C)C)(C2)NC1=O` (single isomer, unassigned) [FP0365c Isomer 2, Ac-A-R8-I-L-D-A-H-I-MB-1NapA-V-W-NH2]: the pEC50 was 5.30 to 6.30.

For the compound `CC[C@H](C)[C@@H]1NC(=O)[C@H](Cc2c[nH]cn2)NC(=O)[C@H](C)NC(=O)[C@H](CC(=O)O)NC(=O)[C@H](CC(C)C)NC(=O)[C@H]([C@@H](C)CC)NC(=O)[C@](C)(NC(=O)[C@H](C)NC(C)=O)CCCCCCC=CCOC(=O)N2CC[C@@](C(=O)N[C@@H](Cc3cccc4ccccc34)C(=O)N[C@H](C(=O)N[C@@H](Cc3c[nH]c4ccccc34)C(N)=O)C(C)C)(C2)NC1=O` (single isomer, unassigned) [FP0365c, Ac-A-R8-I-L-D-A-H-I-MB-1NapA-V-W-NH2], the pEC50 was 6.30 to 7.00.

Consider `CC[C@H](C)[C@@H]1NC(=O)[C@H](Cc2c[nH]cn2)NC(=O)[C@H](C)NC(=O)[C@H](CC(=O)O)NC(=O)[C@H](CC(C)C)NC(=O)[C@H]([C@@H](C)CC)NC(=O)[C@](C)(NC(=O)[C@H](C)NC(C)=O)CCCCC=CCOC(=O)N(C)CC[C@@](C)(C(=O)N[C@@H](CCCNC(=N)N)C(=O)N[C@H](C(=O)N[C@@H](Cc2c[nH]c3ccccc23)C(N)=O)C(C)C)NC1=O` (single isomer, unassigned) [FP0502c Isomer 1, Ac-A-R6-I-L-D-A-H-I-MF-R-V-W-NH2], for which the pEC50 was greater than 7.00.

For the compound `CC[C@H](C)[C@@H]1NC(=O)[C@H](Cc2c[nH]cn2)NC(=O)[C@H](C)NC(=O)[C@H](CC(=O)O)NC(=O)[C@H](CC(C)C)NC(=O)[C@H]([C@@H](C)CC)NC(=O)[C@](C)(NC(=O)[C@H](C)NC(C)=O)CCCCC=CCOC(=O)N(C)CC[C@@](C)(C(=O)N[C@@H](CCCNC(=N)N)C(=O)N[C@H](C(=O)N[C@@H](Cc2c[nH]c3ccccc23)C(N)=O)C(C)C)NC1=O` (single isomer, unassigned) [FP0502c Isomer 2, Ac-A-R6-I-L-D-A-H-I-MF-R-V-W-NH2], the pEC50 was 6.30 to 7.00.

Turning to `CC[C@H](C)[C@@H]1NC(=O)[C@H](Cc2c[nH]cn2)NC(=O)[C@H](C)NC(=O)[C@H](CC(=O)O)NC(=O)[C@H](CC(C)C)NC(=O)[C@H]([C@@H](C)CC)NC(=O)[C@](C)(NC(=O)[C@H](C)NC(C)=O)CCCN(C)C(=O)OCC=CCCC[C@@](C)(C(=O)N[C@@H](CCCNC(=N)N)C(=O)N[C@H](C(=O)N[C@@H](Cc2c[nH]c3ccccc23)C(N)=O)C(C)C)NC1=O` (single isomer, unassigned) [FP0506c Isomer 1, Ac-A-MI-I-L-D-A-H-I-S5-R-V-W-NH2], the pEC50 is 6.30 to 7.00.

With `CC[C@H](C)[C@@H]1NC(=O)[C@H](Cc2c[nH]cn2)NC(=O)[C@H](C)NC(=O)[C@H](CC(=O)O)NC(=O)[C@H](CC(C)C)NC(=O)[C@H]([C@@H](C)CC)NC(=O)[C@](C)(NC(=O)[C@H](C)NC(C)=O)CCCN(C)C(=O)OCC=CCCC[C@@](C)(C(=O)N[C@@H](CCCNC(=N)N)C(=O)N[C@H](C(=O)N[C@@H](Cc2c[nH]c3ccccc23)C(N)=O)C(C)C)NC1=O` (single isomer, unassigned) [FP0506c Isomer 2, Ac-A-MI-I-L-D-A-H-I-S5-R-V-W-NH2], the pEC50 is greater than 7.00.

These data come from patent US11198713B2, “Agents modulating beta-catenin functions and methods thereof” (FOG PHARMACEUTICALS, INC., priority 2017, dated 2021).
